Source: patent US9351974B2, “Substituted pteridinones for the treatment of cancer” (OSI Pharmaceuticals, LLC, priority 2011, dated 2016)
pIC50: −log10 of the molar value.

Target: T1, His-tagged full-length RSK2 (RPS6KA3) (Homo sapiens, UniProt P51812)
T1 construct: His-tagged full-length RSK2 (RPS6KA3, Invitrogen PV3323); His; purchased Invitrogen PV3323
Assay: RSK2 Omnia Assay for compound IC50 determination
Assay type: biochemical
Settings: ATP 15 μM, n=2, read-out: Mean RSK2 Biochem IC50
Experimental: RSK1 & RSK2 Omnia Assay Protocol for Compound IC50 Determination
The Omnia Assay (Invitrogen) has been optimized for His-tagged full length RSK1 (RPS6KA1, Millipore 14-509) and for His-tagged full-length RSK2 (RPS6KA3, Invitrogen PV3323). In this assay system, Omnia ST Peptide 6 (Invitrogen KNZ1061) functions as a substrate for RSK1 or RSK2. Phosphorylation of this SOX-containing peptide results in an increase in fluorescence at 485 nm upon excitation at 360 nm.
Assays are carried out in 384-well OptiPlates (Perkin Elmer 6007290) in a total volume of 20 μL containing RSK1 ([…]) or RSK2 ([…]), Omnia ST Peptide 6 (5 μM), ATP (15 μM, Km=16.3 μM), and test compound (variable) in RSK assay buffer (50 mM HEPES, pH 7.5, 10 mM MgCl2, 0.01% Tween-20, 1% glycerol, 1 mM DTT, 1 mM EGTA, 0.01% BSA) with 1% DMSO.
IC50s for test compounds are typically determined using an 11-point three-fold serial dilution with a final assay concentration ranging either from 170 μM to […] or from 17 μM to […]. All compound concentrations are assayed in duplicate. Initial compound dilutions are prepared at 100× concentration in 100% DMSO from a 10 mM stock solution. Compounds are further diluted 1:25 in assay buffer resulting in a 4× concentrated solution.
To run the assay 5 μL of the above 4× concentrated compound solution (or 4% DMSO for positive controls) is added to the assay plate followed by 5 μL of a solution containing peptide (20 μM) and ATP (60 μM) in assay buffer. The reaction is initiated by the addition of 10 μL of RSK1 ([…]) or RSK2 ([…]) in assay buffer, or assay buffer alone for negative controls. The increase in fluorescence due to peptide phosphorylation is monitored continuously as a function of time using a Spectramax M5 plate reader (Molecular Devices) equipped with SoftMax Pro software.
The slopes from the linear portion of progress curves are used to determine IC50 values by non-linear curve-fitting to a four-parameter equation using GraphPad Prism (GraphPad Software, Inc.) or XLFit (IDBS). IC50's are determined in duplicate (n=2) and Ki values are calculated from IC50 values using the Cheng-Prusoff equation assuming a competitive mode of inhibition.

T1 sequence (P51812 whole entry): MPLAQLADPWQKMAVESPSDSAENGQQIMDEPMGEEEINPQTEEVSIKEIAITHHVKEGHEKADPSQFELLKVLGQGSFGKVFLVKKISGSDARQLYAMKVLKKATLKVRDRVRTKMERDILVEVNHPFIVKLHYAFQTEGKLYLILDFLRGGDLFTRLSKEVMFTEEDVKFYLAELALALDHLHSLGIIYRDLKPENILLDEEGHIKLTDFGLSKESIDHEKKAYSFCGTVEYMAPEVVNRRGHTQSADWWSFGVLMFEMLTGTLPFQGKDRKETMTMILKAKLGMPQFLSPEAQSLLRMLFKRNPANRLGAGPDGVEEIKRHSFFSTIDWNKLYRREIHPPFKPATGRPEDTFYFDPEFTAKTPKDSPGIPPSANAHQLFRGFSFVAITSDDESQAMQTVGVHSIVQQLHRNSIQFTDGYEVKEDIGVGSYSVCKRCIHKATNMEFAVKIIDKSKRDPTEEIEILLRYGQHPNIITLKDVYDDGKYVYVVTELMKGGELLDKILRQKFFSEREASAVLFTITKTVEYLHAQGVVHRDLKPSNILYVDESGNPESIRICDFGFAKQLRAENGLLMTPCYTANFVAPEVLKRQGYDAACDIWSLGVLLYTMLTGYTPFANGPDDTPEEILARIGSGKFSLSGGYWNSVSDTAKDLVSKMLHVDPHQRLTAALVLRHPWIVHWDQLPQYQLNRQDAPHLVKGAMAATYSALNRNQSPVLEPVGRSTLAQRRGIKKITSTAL

SMILES | pIC50
C[C@@H]1C(=O)N(c2ccc(C(=O)N(C)C)cc2)c2cnc(Nc3ccc4[nH]ncc4c3)nc2N1C1CCCCC1 [Example 27, 4-[(7R)-8-cyclohexyl-2-(1H-indazol-5-ylamino)-7-methyl-6-oxo-7,8-dihydropteridin-5(6H)-yl]-N,N-dimethylbenzamide] | ≥ 7.00
COc1cccc(N2C(=O)[C@@H](C)N(C3CCCCC3)c3nc(Nc4ccc5[nH]ncc5c4)ncc32)c1 [Example 28, (7R)-8-cyclohexyl-2-(1H-indazol-5-ylamino)-5-(3-methoxyphenyl)-7-methyl-7,8-dihydropteridin-6(5H)-one] | ≥ 7.00
Cc1cccc(N2C(=O)[C@@H](C)N(C3CCCCC3)c3nc(Nc4ccc5[nH]ncc5c4)ncc32)c1 [Example 30, (7R)-8-cyclohexyl-2-(1H-indazol-5-ylamino)-7-methyl-5-(3-methylphenyl)-7,8-dihydropteridin-6(5H)-one] | ≥ 7.00
C[C@@H]1C(=O)N(c2cccc(Cl)c2)c2cnc(Nc3ccc4[nH]ncc4c3)nc2N1C1CCCCC1 [Example 31, (7R)-5-(3-chlorophenyl)-8-cyclohexyl-2-(1H-indazol-5-ylamino)-7-methyl-7,8-dihydropteridin-6(5H)-one] | ≥ 7.00
C[C@@H]1C(=O)N(c2cccc(C(=O)N(C)C)c2)c2cnc(Nc3ccc4[nH]ncc4c3)nc2N1C1CCCCC1 [Example 32, 3-[(7R)-8-cyclohexyl-2-(1H-indazol-5-ylamino)-7-methyl-6-oxo-7,8-dihydropteridin-5(6H)-yl]-N,N-dimethylbenzamide] | ≥ 7.00
C[C@@H]1C(=O)N(c2ccc(OC(F)(F)F)cc2)c2cnc(Nc3ccc4[nH]ncc4c3)nc2N1C1CCCCC1 [Example 33, (7R)-8-cyclohexyl-2-(1H-indazol-5-ylamino)-7-methyl-5-[4-(trifluoromethoxy)phenyl]-7,8-dihydropteridin-6(5H)-one] | 6.00 to 7.00
C[C@@H]1C(=O)N(c2cccc(OC(F)(F)F)c2)c2cnc(Nc3ccc4[nH]ncc4c3)nc2N1C1CCCCC1 [Example 34, (7R)-8-cyclohexyl-2-(1H-indazol-5-ylamino)-7-methyl-5-[3-(trifluoromethoxy)phenyl]-7,8-dihydropteridin-6(5H)-one] | ≥ 7.00
C[C@@H]1C(=O)N(c2ccc(C(F)(F)F)cc2)c2cnc(Nc3ccc4[nH]ncc4c3)nc2N1C1CCCCC1 [Example 35, (7R)-8-cyclohexyl-2-(1H-indazol-5-ylamino)-7-methyl-5-[4-(trifluoromethyl)phenyl]-7,8-dihydropteridin-6(5H)-one] | ≥ 7.00
C[C@@H]1C(=O)N(c2cccc(C(F)(F)F)c2)c2cnc(Nc3ccc4[nH]ncc4c3)nc2N1C1CCCCC1 [Example 36, (7R)-8-cyclohexyl-2-(1H-indazol-5-ylamino)-7-methyl-5-[3-(trifluoromethyl)phenyl]-7,8-dihydropteridin-6(5H)-one] | ≥ 7.00
CNS(=O)(=O)c1ccc(N2C(=O)[C@@H](C)N(C3CCCCC3)c3nc(Nc4ccc5[nH]ncc5c4)ncc32)cc1 [Example 37, 4-[(7R)-8-cyclohexyl-2-(1H-indazol-5-ylamino)-7-methyl-6-oxo-7,8-dihydropteridin-5(6H)-yl]-N-methylbenzenesulfonamide] | ≥ 7.00
COc1cc(N2C(=O)[C@@H](C)N(C3CCCCC3)c3nc(Nc4ccc5[nH]ncc5c4)ncc32)cc(OC)c1OC [Example 38, (7R)-8-cyclohexyl-2-(1H-indazol-5-ylamino)-7-methyl-5-(3,4,5-trimethoxyphenyl)-7,8-dihydropteridin-6(5H)-one] | ≥ 7.00
C[C@@H]1C(=O)N(c2ccc3c(c2)OCO3)c2cnc(Nc3ccc4[nH]ncc4c3)nc2N1C1CCCCC1 [Example 39, (7R)-5-(1,3-benzodioxol-5-yl)-8-cyclohexyl-2-(1H-indazol-5-ylamino)-7-methyl-7,8-dihydropteridin-6(5H)-one] | ≥ 7.00
C[C@@H]1C(=O)N(c2ccc(S(C)(=O)=O)cc2)c2cnc(Nc3ccc4[nH]ncc4c3)nc2N1C1CCCCC1 [Example 40, (7R)-8-cyclohexyl-2-(1H-indazol-5-ylamino)-7-methyl-5-[4-(methylsulfonyl)phenyl]-7,8-dihydropteridin-6(5H)-one] | ≥ 7.00
